Among the data in patent US11998539B2, “Substituted aminoquinolones as DGKalpha inhibitors for immune activation” (Bayer Aktiengesellschaft, priority 2019, dated 2024) are IC50 values, retold here.

DGKα, sequence (P23743 other isoform, or with tags, fused parts or gaps): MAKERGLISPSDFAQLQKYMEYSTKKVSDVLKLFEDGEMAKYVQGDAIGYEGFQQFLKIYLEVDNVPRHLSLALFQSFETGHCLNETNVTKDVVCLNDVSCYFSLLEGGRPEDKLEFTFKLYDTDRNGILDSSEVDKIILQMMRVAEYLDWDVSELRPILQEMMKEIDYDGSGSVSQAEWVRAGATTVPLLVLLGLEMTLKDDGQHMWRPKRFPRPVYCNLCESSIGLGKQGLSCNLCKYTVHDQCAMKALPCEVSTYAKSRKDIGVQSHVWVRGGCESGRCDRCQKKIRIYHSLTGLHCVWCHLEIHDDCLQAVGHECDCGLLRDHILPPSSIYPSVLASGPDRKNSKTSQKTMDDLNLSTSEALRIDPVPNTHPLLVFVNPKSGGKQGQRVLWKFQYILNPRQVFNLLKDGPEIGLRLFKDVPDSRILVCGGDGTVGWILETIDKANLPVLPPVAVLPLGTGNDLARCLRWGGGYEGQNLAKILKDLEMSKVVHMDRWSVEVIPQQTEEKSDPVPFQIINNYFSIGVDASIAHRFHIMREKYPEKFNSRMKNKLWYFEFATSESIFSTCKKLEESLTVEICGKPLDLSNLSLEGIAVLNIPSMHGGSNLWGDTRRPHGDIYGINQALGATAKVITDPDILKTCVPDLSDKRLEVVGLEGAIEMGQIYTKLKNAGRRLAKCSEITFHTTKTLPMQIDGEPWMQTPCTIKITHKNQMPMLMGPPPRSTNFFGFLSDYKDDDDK

This assay has as its target DGKα (Homo sapiens (Human), UniProt P23743). The assay can be described thus: Human DGKα kinase activity inhibition assay (ADP-Glo). Conditions: recombinant full-length human DGKα, 55 μM ATP, 7 μM 1,2-dioleoyl-sn-glycerol, read-out: IC50 values of examples in in vitro human DGKa kinase activity inhibition assays. Type of assay: biochemical. The gist of the method: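 Recombinant full-length human DGKα (C-terminal FLAG, from insect cells) phosphorylated 1,2-dioleoyl-sn-glycerol presented in octyl-glucopyranoside micelles. ADP formed was quantified by ADP-Glo luminescence. Compounds were added from 100-fold DMSO stocks.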
As for `Cn1c(=O)c(C#N)c(N2CCC(c3cccc(N=S(C)(C)=O)c3)CC2)c2ccccc21` [Example 69, 4-[4-(3-{[dimethyl(oxo)-A6-sulfanylidene]amino}phenyl)piperidin-1-yl]-1-methyl-2-oxo-1,2-dihydroquinoline-3-carbonitrile], the IC50 was 105 nM.

Regarding `COc1ccc(C2CCN(c3c(C#N)c(=O)n(C)c4cc(Br)ccc34)CC2)cc1` [Example 89, 7-bromo-4-[4-(4-methoxyphenyl)piperidin-1-yl]-1-methyl-2-oxo-1,2-dihydroquinoline-3-carbonitrile], the IC50 amounted to 2.1 nM.

With `Cc1ccc2c(c1)c(N1CCC(c3nc4ccccc4o3)CC1)c(C#N)c(=O)n2C` [Example 165, 4-[4-(1,3-benzoxazol-2-yl)piperidin-1-yl]-1,6-dimethyl-2-oxo-1,2-dihydroquinoline-3-carbonitrile], the half-maximal inhibitory concentration (IC50) was 2.6 nM.

`CC(=O)c1ccc(C2(C)CCN(c3c(C#N)c(=O)n(C)c4ccccc34)CC2)cc1` [Example 335, 4-[4-(4-acetylphenyl)-4-methylpiperidin-1-yl]-1-methyl-2-oxo-1,2-dihydroquinoline-3-carbonitrile]: the IC50 was 2.3 nM.

Consider `Cc1ccc2oc(C3CCN(c4c(C#N)c(=O)n(C)c5cc(OCC(N)=O)ccc45)CC3)nc2c1` [Example 413, 2-({3-cyano-1-methyl-4-[4-(5-methyl-1,3-benzoxazol-2-yl)piperidin-1-yl]-2-oxo-1,2-dihydroquinolin-7-yl}oxy)acetamide], for which the 50% inhibitory concentration (IC50) turned out to be 1 nM.

As for `Cc1ccc2oc(C3CCN(c4c(C(N)=O)c(=O)n(C)c5cc(F)ccc45)CC3)nc2c1` [Example 304, 7-fluoro-1-methyl-4-[4-(5-methyl-1,3-benzoxazol-2-yl)piperidin-1-yl]-2-oxo-1,2-dihydroquinoline-3-carboxamide], the IC50 came out at 2.1 nM.

For the molecule `CCOc1ccc2c(c1)c(N1CCC(c3nc4cc(C)ccc4o3)CC1)c(C(N)=O)c(=O)n2C` [Example 502, 6-ethoxy-1-methyl-4-[4-(5-methyl-1,3-benzoxazol-2-yl)piperidin-1-yl]-2-oxo-1,2-dihydroquinoline-3-carboxamide], the IC50 came to 120 nM.

For the molecule `Cc1ccc2oc(C3(C)CCN(c4c(C#N)c(=O)n(C)c5c(C6COC6)cccc45)CC3)nc2c1` [Example 245, 1-methyl-4-[4-methyl-4-(5-methyl-1,3-benzoxazol-2-yl)piperidin-1-yl]-8-(oxetan-3-yl)-2-oxo-1,2-dihydroquinoline-3-carbonitrile], the IC50 turned out to be 5.9 nM.

Turning to `COc1ccc(C2CCN(c3c(C#N)c(=O)n(C)c4ccc(-c5ccccc5)cc34)CC2)cc1` [Example 181, 4-[4-(4-methoxyphenyl)piperidin-1-yl]-1-methyl-2-oxo-6-phenyl-1,2-dihydroquinoline-3-carbonitrile], the IC50 amounted to 150 nM.

`Cn1c(=O)c(C(N)=O)c(N2CCC(c3nc4cc(OCC5CCCO5)ccc4o3)CC2)c2ccccc21` (stereo not shown) [Example 487, 1-methyl-2-oxo-4-(4-{5-[(oxolan-2-yl)methoxy]-1,3-benzoxazol-2-yl}piperidin-1-yl)-1,2-dihydroquinoline-3-carboxamide]: the half-maximal inhibitory concentration (IC50) turned out to be 13 nM.

As to `Cn1c(=O)c(C(N)=O)c(N2CCC(c3nc4ccccc4o3)CC2)c2ccc(Cl)cc21` [Example 300, 4-[4-(1,3-benzoxazol-2-yl)piperidin-1-yl]-7-chloro-1-methyl-2-oxo-1,2-dihydroquinoline-3-carboxamide], the IC50 came to 1.2 nM.

On to `COc1ccccc1-c1csc(C2CCN(c3c(C#N)c(=O)n(C)c4ccccc34)CC2)n1` [Example 373, 4-{4-[4-(2-methoxyphenyl)-1,3-thiazol-2-yl]piperidin-1-yl}-1-methyl-2-oxo-1,2-dihydroquinoline-3-carbonitrile], for which the IC50 was 9.9 nM.

As for `Cc1ccc2c(c1)c(N1CCC(c3nc4ccccc4o3)CC1)c(C(N)=O)c(=O)n2C` [Example 193, 4-[4-(1,3-benzoxazol-2-yl)piperidin-1-yl]-1,6-dimethyl-2-oxo-1,2-dihydroquinoline-3-carboxamide], the IC50 came out at 2.4 nM.
